Experimental data reported in PubChem BioAssay (NCI).
Several values for one entry are separate records, joined by “and”; a condition that tells them apart may be missing. Equal entries are not always repeated.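 48-hour exposure; five concentrations; linearly interpolated endpoints. GI50 is the concentration that inhibits growth by half. The concentration for full growth arrest is given as TGI.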

Legend:
Assay in all cases: NCI tumour cell line growth inhibition, 48 h
786-0 renal = tested on: 786-0 renal
HCT-15 colon = tested on: HCT-15 colon
HT29 colon = tested on: HT29 colon
MCF7 breast = tested on: MCF7 breast
NCI-H226 lung = tested on: NCI-H226 lung
OVCAR-4 ovarian = tested on: OVCAR-4 ovarian
SK-MEL-2 melanoma = tested on: SK-MEL-2 melanoma
SN12C renal = tested on: SN12C renal
DMS 114 small cell lung = tested on: DMS 114 small cell lung
M19-MEL melanoma = tested on: M19-MEL melanoma

Compound | GI50 (786-0 renal) | TGI (786-0 renal) | GI50 (HCT-15 colon) | TGI (HCT-15 colon) | GI50 (HT29 colon) | TGI (HT29 colon) | GI50 (MCF7 breast) | TGI (MCF7 breast) | GI50 (NCI-H226 lung) | TGI (NCI-H226 lung) | GI50 (OVCAR-4 ovarian) | TGI (OVCAR-4 ovarian) | GI50 (SK-MEL-2 melanoma) | TGI (SK-MEL-2 melanoma) | GI50 (SN12C renal) | TGI (SN12C renal) | TGI (DMS 114 small cell lung) | TGI (M19-MEL melanoma)
C(=C\c1nc2ccccc2s1)/c1ccc(N2CCOCC2)s1 | 33.7 µM | > 100 µM | 17.1 µM | > 100 µM | 20.8 µM | > 100 µM | 75 µM | > 100 µM | 43.3 µM | > 100 µM | 33.7 µM | > 100 µM | 63.8 µM | > 100 µM | 43.3 µM | > 100 µM |  | 
O=C(O)CP(=O)(c1ccccc1)c1ccccc1.O=C(O)CP(=O)(c1ccccc1)c1ccccc1.[Cd] | 19.3 µM | 60 µM | 9.21 µM | 22.9 µM | 18 µM | 37.3 µM | 27.2 µM | > 100 µM | 12.7 µM | 28.6 µM | 13.3 µM | 34.1 µM | 19.6 µM | 75.3 µM | 16.4 µM | 31.1 µM |  | 
CCNC(=O)c1ccc2c(c1)nc(-c1ccc(Cl)cc1)n2-c1cc(C(C)(C)C)[nH]n1 | 3.48 µM | 47.4 µM | 3.26 µM | 18 µM | 3.13 µM | 9.71 µM | 2.68 µM | 10.5 µM | 2.56 µM | 9.24 µM | 5.43 µM | > 100 µM | 2.81 µM | 8.15 µM | 3.79 µM | 70 µM |  | 
C/C=C(\C)C(=O)OC1C2C(C)C(=O)OC2C(O)C(C)C2C=CC(=O)C21C (configuration not stated) |  | 30.3 µM |  | 34.5 µM |  | 32 µM |  | 21.6 µM |  | 46.5 µM |  | > 74.7 µM |  | 34.4 µM |  | 43.1 µM |  | 
Cc1ccc(C)c(N2C(=O)C(=O)c3c(C)ccc(C)c32)c1 |  | > 100 µM |  | 27.2 µM |  | 46.4 µM |  | 59 µM |  | > 100 µM |  | > 100 µM |  | 68.4 µM |  | > 100 µM |  | 
O=C(Nc1cccc(-n2cc(-c3ccncc3)c(-c3ccc(O)c(Cl)c3)n2)c1)c1ccc(N2CCOCC2)c(C(F)(F)F)c1 | 0.982 µM | > 50 µM | 1.21 µM | > 50 µM | 2.36 µM | > 50 µM | 2.03 µM | > 50 µM | > 50 µM | > 50 µM | > 50 µM | > 50 µM | 34 µM | > 50 µM | > 50 µM | > 50 µM |  | 
CO[C@]12CCC(=O)N1C=Cc1c2[nH]c2ccccc12 |  | > 100 µM |  | > 100 µM |  | > 100 µM |  |  |  | > 100 µM |  | > 100 µM |  |  |  |  | > 100 µM | > 100 µM
CC1=C2[C@@H](c3ccccc3)C3C=CC2(c2ccccc23)N(C(=O)Nc2cccc3ccccc23)C1=O (some centres not stated) |  | > 100 µM |  | > 100 µM |  |  |  |  |  |  |  | > 100 µM |  |  |  | > 100 µM | > 100 µM | 
O=c1cc(-c2ccccc2)nc2cc(-c3ccco3)[nH]n12 | 31 µM | > 100 µM | 6.16 µM | > 100 µM | 4.22 µM | > 100 µM | 0.554 µM | > 100 µM | 47.9 µM | > 100 µM | 23 µM | > 100 µM | 6.53 µM | 54.2 µM | 18.5 µM | > 100 µM |  | 
COc1ccc2c(c1)c(-c1nc(-c3cn(C)c4ncccc34)cs1)cn2CCCCN1CCOCC1 | 1.57 µM | 3.44 µM | 0.627 µM | 1.47 µM | 0.766 µM | 1.95 µM | 1.71 µM | 3.67 µM | 2.53 µM | 8.81 µM | 1.71 µM | 4.94 µM | 2.05 µM | 4.29 µM | 3.28 µM | 9.22 µM |  | 
COc1cc(C(=O)Nc2cc(O)c(C/C=C(\C)CCC=C(C)C)c(O)c2)cc2c1O[C@]1(C)CC[C@@H](O)C(C)(C)[C@H]1C2 | 0.00947 µM and 0.0168 µM | 6.07 µM | 0.471 µM and 0.628 µM | 3.38 µM and 3.37 µM | 1.42 µM and 0.955 µM | 5.43 µM and 3.79 µM | 0.0507 µM and 0.104 µM | 12.3 µM | 3.47 µM | 29 µM | 5.3 µM and 3.14 µM | 32 µM | 0.0833 µM and 0.215 µM | 3.08 µM | 1.95 µM and 2.44 µM | 19.9 µM |  | 
Nc1ncnc2c1c(C(=O)NO)cn2C1OC(CO)C(O)C1O (configuration not stated) | 0.63 µM | 14.2 µM | 0.213 µM | 1.89 µM | 0.39 µM | > 100 µM | 0.213 µM | 1.69 µM | 0.6 µM | 5.51 µM | 0.213 µM | 5.61 µM | 0.333 µM | 1.92 µM | 0.244 µM | 1.24 µM |  | 
O=C(Nc1ccc(O)c(NS(=O)(=O)c2ccc(F)cc2)c1)c1ccc(-c2ccccc2)cc1 | 7.87 µM | 22.7 µM | 4.36 µM | 17.3 µM | 14.1 µM | 30.9 µM | 3.85 µM | 17.4 µM | 4.96 µM | 23.8 µM | 4.45 µM | 25.3 µM | 15.1 µM | 46.2 µM | 9.79 µM | 21.7 µM |  | 
Cc1nc2sc(C(=O)Nc3cccc(Cl)c3C)c(N)c2cc1C(=O)c1ccccc1 | 0.296 µM | > 50 µM | 0.226 µM | > 50 µM | 0.202 µM | > 17.9 µM | 0.168 µM | > 50 µM | 1.28 µM | > 50 µM | 1.08 µM | > 50 µM | 0.329 µM | > 50 µM | 0.568 µM | > 50 µM |  | 
CN/N=C(/CC(=O)c1sc(-n2nc(-c3ccccc3)cc2-c2ccccc2)nc1C)C(=O)Nc1ccc(Cl)c(Cl)c1 |  | > 100 µM |  | > 100 µM |  | > 100 µM |  |  |  | > 100 µM |  | > 100 µM |  | > 100 µM |  | > 100 µM |  | > 100 µM
CS(=O)(=O)c1ccc(-c2[nH]c3ccc(F)cc3c2/C=N/NC(N)=S)cc1 | 0.605 µM | > 100 µM | 0.611 µM | > 100 µM | 0.558 µM | 15.2 µM | 2.1 µM | 18.7 µM | 3.28 µM | > 100 µM | 13.4 µM | > 100 µM | 10.6 µM | > 100 µM | 3.14 µM | > 100 µM |  | 
